From patent US11365216B2, “Antiviral immunotropic agent for the treatment of acute respiratory viral infections” (PVP LABS PTE. LTD., priority 2018, dated 2022)
Where a SMILES comes first, the peptide text is derived from it. [ ]: non-standard residue; d: D form.

Legend:
[1] = tested on: influenza A virus/New Caledonia/20/99 (H1N1); experiment: microbe, parasite or virus in culture; type: cell-based
[2] = tested on: influenza A virus/Aichi/2/69 (H3N2); experiment: influenza-induced pneumonia in mice; type: in vivo
type 5 adenovirus = experiment: suppression of cytopathogenic effect of adenovirus in monolayer HeLa culture; type: cell-based
Protocol: The work was performed using type 5 adenovirus, which was procured in 1998 from the D.I. Ivanovsky Research Institute of Virology and stored in the Specialised Collection of a branch of the 48th Central Research Institute of the Ministry of Defence of Russia—Computing Centre.
A HeLa type culture (cervical carcinoma cells) with a density of 200-250 thousand/mL was used. Semisynthetic growth media based on Hank's solution containing 7.5 and 2% bovine serum respectively were used. A 48-hour monolayer culture of HeLa cells was infected with type 5 adenovirus at a dose of 0.01 TCID50 per cell. The monolayer culture was then incubated at 37±0.5° C. for 96 hours.
The antiviral activity of the product was evaluated by the suppression of the cytopathogenic effect (CPE) of the virus in the HeLa culture after the virus was applied to an established monolayer culture of HeLa cells.
Efficacy criteria of the test drug were: CPE detection rate and inhibitory constant (Ki, %). The inhibitory constant was calculated according to the following formula: Ki=100. (Cc-Ct)/Cc, where Cc and Ct is the infectious titre of the virus in the control sample and test sample respectively.

IFN-α = experiment: interferon-inducing effect in mice (ELISA of blood plasma); type: in vivo; conditions: 24 hours after administration; Dalargin 1 mg/kg, ARBIDOL intragastrically; versus control groups
Protocol: The experiments were performed in 40 CBA×C57BI/6/male mice with a body weight of 20-25 g. The animals were randomised in 4 groups (of 10 animals each): two active groups (receiving Dalargin or ARBIDOL) and two control groups. One control group was intended for determining baseline INF levels (before the start of the experiment), the other group was intended for determining INF levels at 24 hours after the administration of placebo (saline), ensuring the equivalence of conditions.
Dalargin was administered at a dose of 1 mg/kg, which is equivalent to a human dose of 5-6 mg. ARBIDOL was administered intragastrically as a suspension premix in 1% starch gel. Statistical analysis was performed using the Bonferroni correction for multiple testing.
IFN-α levels in the blood plasma of mice was measured at 24 hours after the administration of the drugs. Blood for interferon determination was sampled from the heart under Nembutal anaesthesia (60 mg/kg). […] IFN levels were determined using commercially available enzyme-linked immunosorbent assay (ELISA) kits manufactured by VeriKine™ (USA). […]
The test samples and diluted standards were applied to the plate in duplicate. […] The activity of bound peroxidase was measured on a UNIPLAN™ (Picon) immunoassay analyser at 450 nm.

natural killer cells = experiment: functional (cytotoxic) activity of natural killer cells, radiometric assay with K-562 target cells; type: cell-based, healthy donors; conditions: 5.10^−8 M (≈0.036 μg/mL), 24 hours
Protocol: When evaluating the effect of Dalargin in vitro on the functional activity of NK cells, these cells were obtained from a suspension of peripheral blood mononuclear cells of healthy donors (n=20).
Functional activity of NK cells was determined on the basis of the cytotoxic reaction (NK can lyse cells of myeloblastoid and lymphoblastoid lines) using the radiometric assay. To perform it, cells of the K-562 myeloblastoid line at a concentration of 10^6/mL were incubated for one hour at 37° C. with ^3H-uridine at 3 μCi/mL of the cell suspension on day 2 after subcultivation. After the incubation, the cells were washed off the radiolabel in medium 199 three times. […]
In one case, after the effector cells and target cells were applied to the plates, Dalargin was added at a molar concentration of 5.10^−8 M (≈0.036 μg/mL). […] The plates were then incubated for 24 hours in a CO2 incubator at 37° C., whereupon the contents were transferred to fibreglass filters, washed, dried, placed in vials with a scintillation liquid, and radioactivity was determined using a β-particle counter. cytotoxicity index (CI) was determined using the formula CI=((A−B)/(C−B)). 100%, where A is radioactivity of target cells in the presence of effector cells, B is residual radioactivity after treating the target cells with Triton X-100, C is radioactivity in target cells in the absence of effector cells.

neutrophils = experiment: phagocytic activity of peptone-mobilised neutrophils; type: in vivo, mice; conditions: 0.2 mg/kg single dose, IM or intranasal
Protocol: (§1) Dalargin is currently authorised for human use in the single dose range from 1 to 5 mg, which, if recalculated for mice, corresponds to z0.2-1 mg/kg. Therefore, the dose used for evaluating the efficacy of the drug in murine phagocytic peritoneal exudate cells was 0.2 mg/kg. Of additional interest was an investigation of possible effect of the route of administration of the drug on functional activity of the phagocytes.
(§2) The immunomodulating activity of the drug was evaluated by microscopy. The test was performed in 60 male BALB/c mice with a body weight of 18-22 g. The animals were allocated to 6 equal groups of 10 mice each. Two groups served as controls. The active therapy groups received Dalargin IM or intranasally at a single dose of 0.2 mg/kg. Macrophage and neutrophil extraction procedures were performed on the next day after administering the study drugs.
The mice were given an intraperitoneal injection of 3-4 mL of 10% peptone solution as a chemoattractant to cause neutrophil accumulation, and 2 hours later the mice were euthanised using chloroform 2 hours later. […]
(§3) The phagocytic activity of neutrophils was evaluated by the following parameters: phagocytic index and phagocyte number. Functional activity of macrophages was evaluated by microscopy, as well as by their ability to absorb nitroblue tetrazolium (NBT) in the activated state.

macrophages = experiment: phagocytosis and NBT reduction of peritoneal exudate macrophages; type: in vivo, mice; conditions: 0.2 mg/kg single dose, IM or intranasal
Protocol: as §1, §2
In order to isolate macrophages, the mice were euthanised on day 3 after the peptone injection. Then 3-4 mL of medium 199 with 10% of foetal bovine serum was administered intraperitoneally, and the liquid was aspirated. […]
as §3

IL-1 = experiment: production of pro-inflammatory cytokines in peripheral blood mononuclear cell culture; type: cell-based, healthy donors; conditions: 5.10^−8 M, relative to control samples (100%)
Protocol: (§4) The effect of Dalargin on the synthesis of cytokines IL-1 (interleukin-1), IL-6 (interleukin-6) and TNF-α (tumour necrosis factor α) was evaluated in an in vitro experiment using a peripheral blood mononuclear cell culture of healthy donors (n=20). Stimulation with an enterobacterial polysaccharide was used to induce the production of pro-inflammatory cytokines.
(§5) In order to obtain a suspension of mononuclear cells, blood was diluted at a 1:2 ratio with medium 199, applied to a Ficoll-Paque density gradient, d=1.077 g/cm^3, and centrifuged at 400 g for 40 min. The white ring produced at the phase interface, which contained mononuclear cells, was carefully withdrawn with a Pasteur pipette and washed twice with medium 199 using 10-minute-long centrifugation (200 g). The precipitate was resuspended in a nutrient medium, counted in a Goryayev counting chamber and adjusted to the required concentration.
(§6) Dalargin was added at a molar concentration of 5.10^−8 M (Z0.036 μg/mL) to the test samples with the polysaccharide and mononuclear cell suspension. The drug was not added to control samples.
(§7) Cytokine quantitation in blood serum was performed using two-site ELISA.

IL-6 = experiment: as above; type: cell-based, healthy donors; conditions: 5.10^−8 M, relative to control samples (100%)
Protocol: as §4, §5, §6, §7

TNF-α = experiment: as above; type: cell-based, healthy donors; conditions: 5.10^−8 M, relative to control samples (100%)
Protocol: as §4, §5, §6, §7

Compound	inhibition at 10 µg/mL ([1]; Influenza A virus, H1N1, MDCK, concentration of 10.0 μg/mL, read-out: inhibiting effect on the reproduction of epidemic virus strains) [%]	MIC values (MIC50, concentration inhibiting virus reproduction by 50%), comparison ([1]; MDCK tissue culture, hexapeptide versus ARBIDOL)	efficacy relative to Arbidol in terms of mean lifetime and survival rate ([2]; Dalargin 2 mg/kg/day IM or intranasal)	mortality due to influenza-induced pneumonia ([2]; IM or intranasal 2 mg/kg/day for 5 days, relative to placebo)	weight loss ([2]; relative to control/placebo, weighed on days 3, 5 and 15)	protective efficacy (type 5 adenovirus; 10 μg/mL) [%]	growth of protective efficacy, administration 24 h before challenge relative to 2 hours after challenge (type 5 adenovirus; added to the maintenance medium)	protection of cells from the cytopathogenic effect of the virus (type 5 adenovirus; administered 24 h before challenge, 0.01 TCID50 per cell, concentrations of 100, 20 and 10)	IFN-α level in blood plasma/serum (IFN-α)	effect on cytotoxic activity of natural killer cells (natural killer cells)	phagocytic activity (phagocytosis) of peptone-mobilised neutrophils (neutrophils)	phagocytosis of peritoneal exudate macrophages, ability to reduce NBT (macrophages)	lipopolysaccharide-induced production of IL-1 (IL-1)	lipopolysaccharide-induced production of IL-6 (IL-6)	lipopolysaccharide-induced production of TNF-α (TNF-α)
CCOC(=O)c1c(CSc2ccccc2)n(C)c2cc(Br)c(O)c(CN(C)C)c12 [ARBIDOL, reference compound]	100	–	–	–	–	–	–	–	–	–	–	–	–	–	–
CC(C)C[C@H](NC(=O)[C@H](Cc1ccccc1)NC(=O)CNC(=O)[C@@H](C)NC(=O)[C@@H](N)Cc1ccc(O)cc1)C(=O)N[C@@H](CCCNC(=N)N)C(=O)O [Dalargin, tyrosyl-D-alanyl-glycyl-phenylalanyl-leucyl-arginine] (H-Y[dA]GFLR-OH)	–	lower MIC values	greater efficacy	reduces the mortality	reduces weight loss	40.0	10-20%	almost completely protected	significant production	immunotropic potential	capable of increasing the phagocytic activity	stimulating effect	significant suppression	significant suppression	significant suppression
